Data set [1] relates to pS6^S235/236 (PI3K signalling) in T cell subsets in whole blood. The data set is described as follows: Ex vivo pS6^S235/236 expression in T cell subsets in whole blood by flow cytometry. The format is cell-based, human. To be noted: for IC50: Homo sapiens, T-cell. On the procedure: (§1) The activity of N—{(R)-1-[8-Chloro-2-(1-oxypyridin-3-yl)quinolin-3-yl]-2,2,2-trifluoroethyl}pyrido[3,2-d]pyrimidin-4-ylamine [hereinafter referred to as “Compound (A)”] on PI3K signalling was assessed by measuring levels of either phosphorylated serine 473 of AKT (pAKT^S473) or phosphorylated serine 235/236 of ribosomal protein S6 (pS6^S235/236) using flow cytometry. The results obtained are depicted in the accompanying drawings, in which:
The levels of pS6^S235/236 in different T cell (CD3+CD4+; CD3+CD8+) subsets in total blood from healthy donors, and from APDS1 and APDS2 patients, were analyzed by flow cytometry. The blood was incubated ex vivo for 45 minutes at 37° C. with different doses of Compound (A) (0, 10, 30, 100, 300, 1000 and 2000 nM).
The phosphorylation of ribosomal protein S6 at Ser 235/236 (pS6^S235/236) in cells from healthy donors, and from APDS1 and APDS2 patients, was analyzed ex vivo in the presence and absence of Compound (A) (10-2000 nM) in different T cell (CD3+CD4+; CD3+CD8+) subsets. As noted above, total blood was incubated ex vivo for 45 minutes at 37° C.
Data were generated with blood from two (2) healthy donors, three (3) APDS1 patients and one (1) APDS2 patient.
On the technique in general: A flow cytometer gives signals particle by particle.

The nature of data set [2]: APD001 Phase 1b open-label 12-week clinical study in APDS1 and APDS2 patients. The format is in vivo, human. Conditions: 12 weeks of treatment. From the text:
APD001 is an ongoing Phase 1b, multicentre, open-label, 12-week study to assess the efficacy, safety and tolerability of Compound (A) in male and female adolescents (aged from 12 to 18 years) and adults with APDS1 and APDS2.

In data set [3] the test system is pAKT^S473 (PI3K signalling) in T cell lymphoblasts. Nature of the data set: pAKT^S473 expression in T cell lymphoblast cultures by flow cytometry, with and without OKT3 activation. To be noted: for IC50: Homo sapiens, T-cell. The data set is classed as cell-based, human. Here is the method:
as §1
Analysis of phosphorylated AKT at Ser 473 (pAKT^S473) levels in T cell lymphoblast cultures by flow cytometry was performed with peripheral blood lymphocytes from healthy donors, and from APDS1 and APDS2 patients, with and without T cell receptor activation.
Generation of T cell lymphoblasts was performed in accordance with the method described by M-C. Deau et al. in J. Clin. Invest., 2014, 124, 3923-3928. In brief, peripheral blood mononuclear cells were isolated by Ficoll-Paque density gradient centrifugation (Pharmacia Biotech; catalogue no. #171-44003) and washed twice with RPMI 1640 GlutaMax medium (Invitrogen). T cell lymphoblasts were obtained by stimulating 1×10^6 cells per mL in RPMI 1640 GlutaMax medium supplemented with 10% human AB serum, penicillin/streptomycin (Invitrogen), PMA (phorbol 12-myristate 13-acetate; 20 ng/mL; Sigma-Aldrich) and ionomycin (1 μmol/L). After 2 to 3 days of activation, viable cells were separated by Ficoll-Paque density-gradient centrifugation and washed twice with RPMI 1640 GlutaMax medium, then cultured in RPMI 1640 GlutaMax medium supplemented with 10% human AB serum and 100 U/mL pro-IL2.
Analysis of phosphorylated AKT at Ser 473 levels in T cell lymphoblast cultures was performed once sufficient cells were available for the analysis (e.g. 6-12 days after starting the culture with pro-IL2).
The activity of Compound (A) was assessed in (i) the absence or (ii) the presence of T cell activation by receptor cross-linking with OKT3:
(i) Incubation of APDS1 and APDS2 patient cells for 30 minutes with Compound (A) at different concentrations (0, 1, 3, 10, 30, 100 and 200 nM). A positive control for pAKT staining (simulated cells with OKT3) was included (8×10^6 cells/patient).
(ii) Incubation of APDS1 and APDS2 patient cells for 30 minutes with Compound (A) at different concentrations (0, 1, 3, 10, 30, 100 and 200 nM) stimulated with anti-CD3 (OKT3; T cell receptor activation).
Corresponding assays were performed with T cell lymphoblasts derived from healthy donors (CTRL).

Molecules are shown by their SMILES. Where two headings read alike, the source gives them in different places. A value given as a limit tells only on which side of the number the result lay.

In the case of `[O-][n+]1cccc(-c2nc3c(Cl)cccc3cc2[C@@H](Nc2ncnc3cccnc23)C(F)(F)F)c1` [Compound (A), N—{(R)-1-[8-Chloro-2-(1-oxypyridin-3-yl)quinolin-3-yl]-2,2,2-trifluoroethyl}pyrido[3,2-d]pyrimidin-4-ylamine], the “Inhibition of pS6^S235/236 expression (in words)” value in data set [1] (CD3+ and CD8+ cells, one APDS2 patient) is recorded as “showed potent inhibition”. The IC50 is not above 100 nM in data set [1] (CD3+ and CD8+ cells, one APDS2 patient, based on concentration-response curves, read-out: IC50, inhibition of pS6^S235/236 expression); 51 nM in data set [1] (CD3+ cells, 3 APDS1 patients, read-out: Geomean IC50 (adjusted for free concentration), pS6^S235/236 expression); 36 to 67 nM in data set [1] (CD3+ cells, 3 APDS1 patients, read-out: Range of IC50 (adjusted for free concentration), pS6^S235/236 expression); 41 nM in data set [1] (CD4+ cells, 3 APDS1 patients, read-out: Geomean IC50 (adjusted for free concentration), pS6^S235/236 expression); 29 to 56 nM in data set [1] (CD4+ cells, 3 APDS1 patients, read-out: Range of IC50 (adjusted for free concentration), pS6^S235/236 expression); 56 nM in data set [1] (CD8+ cells, 3 APDS1 patients, read-out: Geomean IC50 (adjusted for free concentration), pS6^S235/236 expression). Also, the IC50 in data set [1] (CD8+ cells, 3 APDS1 patients, read-out: Range of IC50 (adjusted for free concentration), pS6^S235/236 expression) was 40 to 72 nM; in data set [3] (APDS1 and APDS2 patient-derived T cell lymphoblasts, absence of T cell activation by OKT3, read-out: IC50 range, pAKT expression), 3 to 20 nM; in data set [3] (APDS1 and APDS2 patient-derived T cell lymphoblasts, presence of T cell activation by OKT3, read-out: IC50 range, pAKT expression), 7 to 50 nM; in data set [3] (T lymphoblasts from 3 APDS1 patients, OKT3 +, read-out: Geomean IC50, inhibition of pAKT^S473 expression) it was 21 nM; in data set [3] (T lymphoblasts from 3 APDS1 patients, OKT3 +, read-out: Range of IC50, inhibition of pAKT^S473 expression) it was 7 to 50 nM; in data set [3] (T lymphoblasts from 3 APDS1 patients, OKT3 −, read-out: Geomean IC50, inhibition of pAKT^S473 expression) it was 8 nM. Besides, the IC50 was 3 to 12 nM in data set [3] (T lymphoblasts from 3 APDS1 patients, OKT3 −, read-out: Range of IC50, inhibition of pAKT^S473 expression); 28 nM in data set [3] (T lymphoblasts from 3 APDS2 patients, OKT3 +, read-out: Geomean IC50, inhibition of pAKT^S473 expression); 21 to 33 nM in data set [3] (T lymphoblasts from 3 APDS2 patients, OKT3 +, read-out: Range of IC50, inhibition of pAKT^S473 expression); 13 nM in data set [3] (T lymphoblasts from 3 APDS2 patients, OKT3 −, read-out: Geomean IC50, inhibition of pAKT^S473 expression); 8 to 20 nM in data set [3] (T lymphoblasts from 3 APDS2 patients, OKT3 −, read-out: Range of IC50, inhibition of pAKT^S473 expression); 16 nM in data set [3] (T lymphoblasts from 3 healthy donors, OKT3 +, read-out: Geomean IC50, inhibition of pAKT^S473 expression). The IC50 in data set [3] (T lymphoblasts from 3 healthy donors, OKT3 +, read-out: Range of IC50, inhibition of pAKT^S473 expression) was in the range of 9 to 50 nM. Further, the “Inhibition of pS6^S235/236 signal (in words)” value in data set [1] (three T cell subsets, three APDS1 patients) is on record as “showed inhibition”. Besides, in data set [2] (APDS patients), the Tolerability result is “well tolerated”. The Clinical outcome in data set [2] (three APDS patients) was “some clinical and immunological improvements together with disease activity improvement”. For the same molecule, the “Inhibition of pAKT^S473 expression (in words)” value in data set [3] (basal and activated T lymphoblast cultures) is recorded as “potently inhibited”.

The record behind these values is patent US20190209567A1, “A Specific Trifluoroethyl Quinoline Analogue For Use In The Treatment of APDS” (UCB Biopharma SPRL, priority 2016, published 2019).
